Reference: paper PMC9014415, “Repositioning of a Diaminothiazole Series Confirmed to Target the Cyclin-Dependent Kinase CRK12 for Use in the Treatment of African Animal Trypanosomiasis” (Journal of Medicinal Chemistry, 2022)
Converted amounts (≈) assume the structure as drawn. “And” between values parts separate entries of the source, which are not always exact repeats. Identical values can stand only once. Like-named read-outs stand apart in the source and are kept apart here.

Assays:
T. vivax = assay: Ex vivo drug sensitivity assay, T. vivax (STIB 719/ILRAD 560); assay type: cell-based; settings: Trypanosoma vivax
Description: Test compounds were resuspended to a final concentration of 10 mg/mL in DMSO. […]
1.3 Ex vivo drug sensitivity assays - Trypanosoma vivax
Since T. vivax cannot be cultured axenically, BSF trypanosomes were harvested from an infected mouse with high parasitemia via cardiac puncture and used directly in ex vivo assays. EC50 values were determined against T, vivax (STIB 719/ ILRAD 560) as previously described3, with minor modifications. Briefly, cell densities were determined using a Neubauer chamber and then diluted to a seeding density of 4 x 105 trypanosomes / mL. BSF trypanosomes were cultured in HMI-9 (IMDM) media containing 20% (v/v) bovine serum. Assay plates were incubated at 37 °C with 5 % CO2, for a total of 45 h prior to addition 10 µL of Resazurin (12.5 mg in 100 mL phosphate buffered saline, Aldrich) into each well, followed by a further 3 h incubation. Absorbance was read using a SpectraMax (Gemini XS) fluorescence reader at an excitation wavelength of 536 nm and an emission wavelength of 588 nm. EC50 values were determined using SOFTmax Pro 5.2 analysis […]
software. […]

[1] = Aqueous kinetic solubility by laser nephelometry; assay type: physicochemical; settings: MilliQ water with 2.5% DMSO, read-out: Sol (kinetic solubility); for solubility kinetic at 24 h: pH 7.4, range 250-12 µM
Description: 2. Drug metabolism and pharmacokinetics
The aqueous solubility of test compounds was measured using laser nephelometry. Compounds were subject to serial dilution from 10 mM to 0.5 mM in DMSO. Aliquot were then mixed with MilliQ water to obtain an aqueous dilution plate with a final concentration range of 250 – 12 µM. The final DMSO concentration in these plates was 2.5%. Triplicate aliquots were transferred to a flat-bottomed polystyrene plate which was immediately read on a NEPHELOstar nephelometer (BMG Lab Technologies). The laser scatter caused by insoluble particulates (relative nephelometry units, RNU) was plotted against compound concentration using a segmental regression fit, with the point of inflection being quoted as the compound’s aqueous solubility (µM).
Solubility of compound 1 was measured by a different method. Here, compound 1 was dissolved in DMSO to give a 10 mM solution and solubility test samples prepared by adding a volume (5 µL) of this stock solution to phosphate buffered saline, pH 7.4 (195 µL, Sigma-Aldrich). This

[2] = PK in female NMRI mice, SC; assay type: in vivo, mouse
Description: 2.5 PK and maximum tolerated dose - mouse
PK studies in female NMRI mice (Figure S1): Test compounds 1, 2 and 10 were dosed SC at 10 mg free base/kg (dose volume 10 mL/kg; dose vehicle: 5% (v/v) DMSO, 40% polyethylene glycol 400 (PEG400) and 55% deionized water) to female NMRI mice (n = 3). Blood samples (10 μL) were taken from each mouse at 0.08, 0.25, 0.5, 1, 2, 4, 6, 8 h post dose (24 h post dose for compounds 2 and 10 only) and mixed with two volumes of deionized water (20 μL). Alternatively, compound 2 was delivered for 48 h via SC implanted ALZET osmotic pumps (10, 25 and 50 mg free base/mL, vehicle: 50% DMSO and 50% deionized water) to the female NMRI mouse (n = 3). Blood samples (10 μL) from each mouse were taken at 1, 3, 6, 24, 30 and 48 h post-dose and mixed with two volumes of deionized water (20 μL). […]

[3] = Pharmacokinetic studies in male Friesian-Holstein cattle, IV and IM (Ridgeway); assay type: in vivo; settings: for Vd: read-out: Vdss
Description: 2.7 Pharmacokinetic studies in cattle (see Table 2). Studies conducted at Ridgeway Compound 1 was dosed IM at 5 mg free base/kg (dose volume 2mL/10 kg; dose vehicle 10% N-Methyl-2-Pyrrolidinone (NMP), 40% 2-pyrrolidinone, 30% PEG400, 20% deionized water) or IV at 2.5 mg free base/kg (dose volume 0.4 mL/10 kg; 2.5% NMP, 30% PEG400, 37.5% propylene glycol, 30% water by volume) to male ruminating Holstein-Friesian cross animals (n = 4). Blood samples were taken from each animal using 18-G needles into EDTA (K2) vacutainers before dosing and at […]
a cool box containing iced water and were processed within 2 h of collection (Figure S2, Table S1).
Compound 2 was dosed IM at 10 mg free base/kg (dose volume 2 mL/10 kg; dose vehicle 40% 0.3 M Acetate Buffer, 20% Kolliphor EL, 20% glycerol formal, 20% 2-pyrrolidone) or IV at 2 mg free base/kg (dose volume 0.4 mL/10 kg; 40% 0.3 M Acetate Buffer, 20% Kolliphor EL, 20% glycerol formal, 20% 2-pyrrolidone) to male ruminating Holstein-Friesian cross animals (n = 3). Blood samples were taken from each animal using 18-G needles into EDTA (K2) vacutainers before dosing […]
into a cool box containing iced water and were processed within 2 h of collection. […]

[4] = cattle, IM 5 mg/kg, individual animals 2754, 7462, 1753, 6752
[5] = cattle, IM 5 mg/kg, n = 4, mean
[6] = cattle, IV 2.5 mg/kg, individual animals 2754, 7462, 1753, 6752, 2.5 mg/kg
[7] = male, Holstein-Friesian cross, bovine, blood, im, 5 mg/kg, cattle, IM 5 mg/kg, individual animals 2754, 7462, 1753, 6752
[8] = cattle, IM 10 mg/kg, individual animals 1644, 3646, 7643
[9] = cattle, IM 10 mg/kg, n = 3, mean
[10] = cattle, IV 2 mg/kg, individual animals 1644, 3646, 7643, 2 mg/kg
[11] = cattle, IV 2 mg/kg, n = 3, mean, 2 mg/kg
[12] = male, Holstein-Friesian cross, bovine, blood, im, 10 mg/kg, cattle, IM 10 mg/kg, individual animals 1644, 3646, 7643
[13] = male, Holstein-Friesian cross, bovine, blood, im, 10 mg/kg, cattle, IM 10 mg/kg, n = 3, mean
[14] = male, Holstein-Friesian cross, bovine, blood, iv, 2 mg/kg, cattle, IV 2 mg/kg, individual animals 1644, 3646, 7643
[15] = male, Holstein-Friesian cross, bovine, blood, iv, 2 mg/kg, cattle, IV 2 mg/kg, n = 3, mean

## CNCc1cc(F)c(C(=O)c2sc(N[C@H]3CC[C@H](NS(=O)(=O)CC(C)C)CC3)nc2N)c(F)c1.Cl [Compound 8, N-((trans)-4-((4-Amino-5-(2,6-difluoro-4-((methylamino)methyl)benzoylthiazol-2-yl)amino)cyclohexyl))-2-methylpropane-1-sulfonamide Hydrochloride]
T. vivax
  EC50: 0.68 nM
[1]; range 250-12 µM
  solubility kinetic: > 250 µM

## CC(C)CS(=O)(=O)N[C@H]1CC[C@H](Nc2nc(N)c(C(=O)c3c(F)cccc3F)s2)CC1 [Compound 1, N-((trans)-4-((4-Amino-5-(2,6-difluorobenzoyl)thiazol-2-yl)amino)cyclohexyl)-2-methylpropane-1-sulfonamide]
T. vivax
  EC50: 95 nM
[2]; mouse, whole blood, 10 mg/kg SC
  bioavailability at 8 h: 74%
[2]; mouse, whole blood, 10 mg/kg SC, read-out: T½
  half-life at 8 h: 1 h
[2]; mouse, whole blood, 10 mg/kg SC, read-out: T½ (converted)
  half-life: ~1 h
[3]; [4]
  AUC 0-∞: 26,000 ng-min/mL and 15,000 ng-min/mL and 22,000 ng-min/mL
  Cmax: 70 ng/mL and 128 ng/mL and 118 ng/mL and 216 ng/mL
  F: 11% and 7% (2×)
  Tmax: 0.25 h
[3]; [5]
  Cmax: 130 ± 60 ng/mL
  F: 8.8 ± 2.1%
[3]; [6]
  AUC 0-∞: 120,000 ng-min/mL (2×) and 160,000 ng-min/mL
  Clb: 24 mL/min/kg and 20 mL/min/kg and 21 mL/min/kg and 15 mL/min/kg
  Vdss: 3.5 L/kg and 1.8 L/kg and 2.5 L/kg and 1.7 L/kg
  half-life: 1.7 h and 2.4 h
[3]; cattle, IV 2.5 mg/kg, n = 4, mean ± SD
  Clb: 20 ± 4 mL/min/kg
[3]; [7]
  AUC(0-inf): 350 ng·h/mL
  bioavailability: 10%
[3]; male, Holstein-Friesian cross, bovine, blood, im, 5 mg/kg, cattle, IM 5 mg/kg, individual animals 2754, 7462, 1753, 6752, read-out: Tmax
  Tmax: 0.5 h
[3]; male, Holstein-Friesian cross, bovine, blood, im, 5 mg/kg, cattle, IM 5 mg/kg, n = 4, mean
  bioavailability: 9%
[3]; male, Holstein-Friesian cross, bovine, blood, im, 5 mg/kg, cattle, IM 5 mg/kg, n = 4, mean, read-out: Cmax
  Cmax: 133 ng/mL
[3]; male, Holstein-Friesian cross, bovine, blood, iv, 2.5 mg/kg, cattle, IV 2.5 mg/kg, individual animals 2754, 7462, 1753, 6752
  AUC(0-inf): 1670 ng·h/mL
[3]; male, Holstein-Friesian cross, bovine, blood, iv, 2.5 mg/kg, cattle, IV 2.5 mg/kg, individual animals 2754, 7462, 1753, 6752, read-out: Half-life (converted)
  half-life: 1.2 h
[3]; male, Holstein-Friesian cross, bovine, blood, iv, 2.5 mg/kg, cattle, IV 2.5 mg/kg, n = 4, mean ± SD
  AUC(0-inf): 2170 ng·h/mL
[3]; male, Holstein-Friesian cross, bovine, blood, iv, 2.5 mg/kg, cattle, IV 2.5 mg/kg, n = 4, mean ± SD, read-out: half-life (converted)
  half-life: ~1.8 h
[3]; male, Holstein-Friesian cross, bovine, blood, cattle, IM 5 mg/kg, mean, read-out: AUC0-8 (converted)
  AUC(0-t): 349 ng·h/mL
[3]; male, Holstein-Friesian cross, bovine, whole blood, im, 5 mg/kg, cattle, IM 5 mg/kg, n = 4, mean ± SD
  AUC(0-inf): 350 ng·h/mL
[3]; male, Holstein-Friesian cross, bovine, whole blood, im, 5 mg/kg, cattle, IM 5 mg/kg, n = 4, mean ± SD, read-out: Tmax
  Tmax: 0.44 ± 0.13 h
[3]; male, Holstein-Friesian cross, bovine, whole blood, iv, 2.5 mg/kg, cattle, IV 2.5 mg/kg, n = 4, mean ± SD
  Vd: 2.4 ± 0.8 L/kg

## CC(C)CS(=O)(=O)N[C@H]1CC[C@H](Nc2nc(N)c(C(=O)c3c(Cl)cccc3Cl)s2)CC1 [Compound 10, N-((trans)-4-((4-Amino-5-(2,6-dichlorobenzoyl)thiazol-2-yl)amino)cyclohexyl)-2-methylpropane-1-sulfonamide]
T. vivax
  EC50: 0.47 nM
[1]
  solubility kinetic at 24 h: 53 µM (≈ 26.8 µg/mL)

## CC(C)CS(=O)(=O)N[C@H]1CC[C@H](Nc2nc(N)c(C(=O)c3c(F)cc(CN(C)C)cc3F)s2)CC1 [Compound 2, N-(trans)-[4-[[4-Amino-5-[4-(dimethylaminomethyl)-2,6-difluoro-benzoyl]thiazol-2-yl]amino]cyclohexyl]-2-methyl-propane-1-sulfonamide]
T. vivax
  EC50: 0.08 nM
[1]
  solubility kinetic at 24 h: 250 µM (≈ 132 µg/mL)
[2]; mouse, blood, 10 mg/kg, single SC 10 mg free base/kg
  Cmax: 818 ng/mL
[2]; mouse, blood, 10 mg/kg, single SC 10 mg free base/kg, read-out: AUC0-24 (converted)
  AUC(0-t): 2160 ng·h/mL
[2]; mouse, blood, single SC 10 mg free base/kg, read-out: Cmin (8 h)
  concentration at 8 h: 10 ng/mL
[2]; single SC 10 mg free base/kg
  Cav: 78 ng/mL
[3]; Friesian cattle, single IM 10 mg free base/kg
  Cav: 253 ng/mL
[3]; [8]
  AUC 0-∞: 510,000 ng-min/mL and 460,000 ng-min/mL
  Cmax: 950 ng/mL and 1,700 ng/mL and 2,600 ng/mL
  F: 75% and 66%
[3]; [9]
  AUC 0-∞: 500,000 ± 30,000 ng-min/mL
  Cmax: 1700 ± 800 ng/mL
  F: 73 ± 6%
  Tmax: 1.3 ± 0.6 h
[3]; cattle, IM, pharmacokinetic study
  Injection site tolerability: irritancy and necrosis
[3]; [10]
  AUC 0-∞: 94,000 ng-min/mL and 180,000 ng-min/mL
  Clb: 14 mL/min/kg and 21 mL/min/kg and 11 mL/min/kg
  half-life: 3 h
[3]; [11]
  AUC 0-∞: 140,000 ± 40,000 ng-min/mL
  Clb: 15 mL/min/kg and 15 ± 5 mL/min/kg
  Vdss: 2.3 ± 0.6 L/kg
[3]; male, Holstein-Friesian cross, bovine, blood, 10 mg/kg, Friesian cattle, single IM 10 mg free base/kg
  AUC: 7330 ng·h/mL
[3]; [12]
  AUC(0-inf): 8830 ng·h/mL
  bioavailability: 78%
[3]; male, Holstein-Friesian cross, bovine, blood, im, 10 mg/kg, cattle, IM 10 mg/kg, individual animals 1644, 3646, 7643, read-out: Tmax
  Tmax: 2 h
[3]; [13]
  AUC(0-inf): 8170 ng·h/mL
  bioavailability: 74%
[3]; male, Holstein-Friesian cross, bovine, blood, im, 10 mg/kg, cattle, IM 10 mg/kg, n = 3, mean, read-out: Cmax
  Cmax: 1720 ng/mL
[3]; male, Holstein-Friesian cross, bovine, blood, im, 10 mg/kg, cattle, IM 10 mg/kg, n = 3, mean, read-out: Tmax
  Tmax: 1 h
[3]; male, Holstein-Friesian cross, bovine, blood, intramuscular, Friesian cattle, single IM 10 mg free base/kg, read-out: Cmin (24 h)
  concentration at 24 h: 20 ng/mL
[3]; [14]
  AUC(0-inf): 2330 ng·h/mL
  Vd: 2 L/kg
[3]; male, Holstein-Friesian cross, bovine, blood, iv, 2 mg/kg, cattle, IV 2 mg/kg, individual animals 1644, 3646, 7643, read-out: Half-life (converted)
  half-life: 6 h
[3]; [15]
  AUC(0-inf): 2170 ng·h/mL
  Vd: 3 L/kg
[3]; male, Holstein-Friesian cross, bovine, whole blood, iv, 2 mg/kg, cattle, IV 2 mg/kg, n = 3, mean, read-out: half-life (converted)
  half-life: 4 ± 2 h
